Test results reported in paper PMC7470124, “Efficient synthesis, biological evaluation, and docking study of isatin based derivatives as caspase inhibitors” (Journal of Enzyme Inhibition and Medicinal Chemistry, 2020).
“Also recorded” adds a separate entry of the source.

Columns and labels:
caspase-3 and −7 = assay: Caspase-3 and -7 inhibition, acetyl-DEVD-AMC fluorogenic substrate assay (text does not say which caspase); type: biochemical; conditions: for inhibition percentage: at 20 μg/ml, caspase not given; for Selectivity Index (SI): IC50 caspase-7/IC50 caspase-3, greater than 1.5 = selective inhibitor of caspase-3; for inhibitory activity against caspase-3 and −7 (in words): compared to Ac-DEVD-CHO
Procedure: (§1) The inhibitory activities of newly synthesised 2–(2,3-dioxoindolin-1-yl)-N-substituted phenyl acetamide, 1-(prop-2-yn-1-yl)indoline-2,3-dione and two series of compounds containing 1-(pyrrolidinyl)sulphonyl and 2-(phenoxymethyl)pyrrolidin-1-yl)sulphonyl substitution at C^5 position of isatin core (B, C, Table 1) against caspase-3 and −7 were evaluated by using the acetyl-DEVD-AMC fluorogenic substrate assay. The results are expressed as inhibition percentage and IC50 values in Table 1. We used Ac-DEVD-CHO as the positive control.
(§2) The activity assay of caspase-3 was performed in a system of 50 µL containing 150 mM NaCl, 1 mM EDTA, 2 mM DTT, 50 mM HEPES pH 7.4, 10 µM Ac-DEVD-AMC (Bachem Bioscience, Philadelphia, PA, USA) and 2 nM caspase-3 in the 1 µL DMSO. Caspase-3 was incubated with synthesised compounds in 384-well plates for 10 min. […] The enzymatic activity of the caspase-3 was measured based on production of a fluorogenic substrate, 7-amino-4-methyl coumarin, which was monitored for 10 min and detected using an EnVision (PerkinElmer, Wellesley, MA, USA) at λex = 360 nm and λem= 460 nm. The initial rate of hydrolysis was determined using the early linear region of the enzymatic reaction curve.

caspase-3 = biological target: T1, caspase-3 (Homo sapiens, UniProt P42574); assay: Caspase-3 inhibition assay (Ac-DEVD-AMC fluorogenic substrate); type: biochemical
T1 sequence (P42574 29-175 limits assumed): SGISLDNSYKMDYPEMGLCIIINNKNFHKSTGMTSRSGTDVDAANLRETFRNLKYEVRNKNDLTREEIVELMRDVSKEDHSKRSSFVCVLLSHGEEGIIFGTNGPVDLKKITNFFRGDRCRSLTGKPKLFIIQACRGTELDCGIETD
T1 sequence (P42574 176-277 limits assumed): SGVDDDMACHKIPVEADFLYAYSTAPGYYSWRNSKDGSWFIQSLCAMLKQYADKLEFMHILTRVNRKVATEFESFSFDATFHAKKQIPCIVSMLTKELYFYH
Procedure: as §1, §2

Molecule	melting point	other results
C#CCN1C(=O)C(=O)c2ccccc21 [11a, 1-(Prop-2-yn-1-yl)indoline-2,3-dione]	158 to 160 °C	–
O=C(CN1C(=O)C(=O)c2ccccc21)Nc1ccccc1 [11b, 2–(2,3-Dioxoindolin-1-yl)-N-phenylacetamide]	174 to 176 °C	–
O=C(CN1C(=O)C(=O)c2ccccc21)Nc1ccc(F)cc1 [11c, 2–(2,3-Dioxoindolin-1-yl)-N-(4-fluorophenyl)acetamide]	–	inhibition percentage (caspase-3 and −7): 71%
O=C(CN1C(=O)C(=O)c2ccccc21)Nc1ccc(Cl)cc1 [11d, N-(4-Chlorophenyl)-2–(2,3-dioxoindolin-1-yl)acetamide]	177 to 179 °C	–
O=C(CN1C(=O)C(=O)c2ccccc21)Nc1ccc(Br)cc1 [11e, N-(4-Bromophenyl)-2–(2,3-dioxoindolin-1-yl)acetamide]	179 to 181 °C	–
O=C(CN1C(=O)C(=O)c2ccccc21)Nc1ccccc1[N+](=O)[O-] [11f, 2–(2,3-Dioxoindolin-1-yl)-N-(2-nitrophenyl)acetamide]	186 to 188 °C	inhibition percentage (caspase-3 and −7): 5%
O=C(CN1C(=O)C(=O)c2ccccc21)Nc1cccc([N+](=O)[O-])c1 [11g, 2–(2,3-Dioxoindolin-1-yl)-N-(3-nitrophenyl)acetamide]	191 to 192 °C	–
O=C(CN1C(=O)C(=O)c2ccccc21)Nc1ccc([N+](=O)[O-])cc1 [11h, 2–(2,3-Dioxoindolin-1-yl)-N-(4-nitrophenyl)acetamide]	179 to 181 °C	–
O=C(CN1C(=O)C(=O)c2ccccc21)Nc1ccc(OC(F)(F)F)cc1 [11i, 2–(2,3-Dioxoindolin-1-yl)-N-(4-(trifluoromethoxy)phenyl)acetamide]	209 to 211 °C	–
Cc1ccc(NC(=O)CN2C(=O)C(=O)c3ccccc32)cc1 [11j, 2–(2,3-Dioxoindolin-1-yl)-N-(p-tolyl)acetamide]	196 to 198 °C	–
COc1ccc(NC(=O)CN2C(=O)C(=O)c3ccccc32)cc1 [11k, 2–(2,3-Dioxoindolin-1-yl)-N-(4-methoxyphenyl)acetamide]	201 to 203 °C	–
Ac-DEVD-CHO [reference compound]	–	IC50 (caspase-3 and −7; caspase-3 and −7, Mean ± SD of three experiments, read-out: IC50 (positive control / studied compounds)): 0.016 ± 0.002 µM

Further lines, with some results ahead:

melting point	Molecule	other results
203 to 205 °C	C#CCN1C(=O)C(=O)c2cc(S(=O)(=O)N3CCCC3)ccc21 [19a, 1-(Prop-2-yn-1-yl)-5-(pyrrolidin-1-ylsulfonyl)indoline-2,3-dione]	Selectivity Index (SI) (caspase-3 and −7): greater than 1.5
191 to 193 °C	O=C(CN1C(=O)C(=O)c2cc(S(=O)(=O)N3CCCC3)ccc21)Nc1ccc(F)cc1 [19c, 2–(2,3-Dioxo-5-(pyrrolidin-1-ylsulfonyl)indolin-1-yl)-N-(4-fluorophenyl)acetamide]	–
195 to 197 °C	O=C(CN1C(=O)C(=O)c2cc(S(=O)(=O)N3CCCC3)ccc21)Nc1ccccc1[N+](=O)[O-] [19f, 2–(2,3-Dioxo-5-(pyrrolidin-1-ylsulfonyl)indolin-1-yl)-N-(2-nitrophenyl)acetamide]	–
266 to 267 °C	O=C(CN1C(=O)C(=O)c2cc(S(=O)(=O)N3CCCC3)ccc21)Nc1ccc(OC(F)(F)F)cc1 [19i, 2–(2,3-Dioxo-5-(pyrrolidin-1-ylsulfonyl)indolin-1-yl)-N-(4-(trifluoromethoxy)phenyl)acetamide]	–
282 to 284 °C	C#CCN1C(=O)C(=O)c2cc(S(=O)(=O)N3CCC[C@H]3COc3ccccc3)ccc21 [20a, (S)-5-((2-(Phenoxymethyl)pyrrolidin-1-yl)sulphonyl)-1-(prop-2-yn-1-yl)indoline-2,3-dione]	–
238 to 240 °C	O=C(CN1C(=O)C(=O)c2cc(S(=O)(=O)N3CCC[C@H]3COc3ccccc3)ccc21)Nc1ccccc1 [20b, (S)-2–(2,3-Dioxo-5-((2-(phenoxymethyl)pyrrolidin-1-yl)sulphonyl)indolin-1-yl)-N-phenylacetamide]	–
108 to 110 °C	O=C(CN1C(=O)C(=O)c2cc(S(=O)(=O)N3CCC[C@H]3COc3ccccc3)ccc21)Nc1ccc(F)cc1 [20c, (S)-2–(2,3-Dioxo-5-((2-(phenoxymethyl)pyrrolidin-1-yl)sulphonyl)indolin-1-yl)-N-(4-fluorophenyl)acetamide]	Selectivity Index (SI) (caspase-3 and −7): greater than 1.5
209 to 211 °C	O=C(CN1C(=O)C(=O)c2cc(S(=O)(=O)N3CCC[C@H]3COc3ccccc3)ccc21)Nc1ccc(Cl)cc1 [20d, (S)-N-(4-chlorophenyl)-2–(2,3-dioxo-5-((2-(phenoxymethyl)pyrrolidin-1-yl)sulphonyl)indolin-1-yl)acetamide]	IC50 (caspase-3): 2.33 µM; Selectivity Index (SI) (caspase-3 and −7): greater than 1.5; inhibitory activity against caspase-3 and −7 (in words) (caspase-3 and −7): most active compound; also recorded: moderate inhibitory activity
196 to 198 °C	O=C(CN1C(=O)C(=O)c2cc(S(=O)(=O)N3CCC[C@H]3COc3ccccc3)ccc21)Nc1ccc(Br)cc1 [20e, (S)-N-(4-Bromophenyl)-2–(2,3-dioxo-5-((2-(phenoxymethyl)pyrrolidin-1-yl)sulphonyl)indolin-1-yl)acetamide]	Selectivity Index (SI) (caspase-3 and −7): greater than 1.5
180 to 182 °C	O=C(CN1C(=O)C(=O)c2cc(S(=O)(=O)N3CCC[C@H]3COc3ccccc3)ccc21)Nc1ccccc1[N+](=O)[O-] [20f, (S)-2–(2,3-Dioxo-5-((2-(phenoxymethyl)pyrrolidin-1-yl)sulphonyl)indolin-1-yl)-N-(2-nitrophenyl)acetamide]	inhibitory activity against caspase-3 and −7 (in words) (caspase-3 and −7): moderated caspase-3 and −7 inhibitors
181 to 183 °C	O=C(CN1C(=O)C(=O)c2cc(S(=O)(=O)N3CCC[C@H]3COc3ccccc3)ccc21)Nc1cccc([N+](=O)[O-])c1 [20g, (S)-2–(2,3-Dioxo-5-((2-(phenoxymethyl)pyrrolidin-1-yl)sulphonyl)indolin-1-yl)-N-(3-nitrophenyl)acetamide]	–
162 to 164 °C	O=C(CN1C(=O)C(=O)c2cc(S(=O)(=O)N3CCC[C@H]3COc3ccccc3)ccc21)Nc1ccc([N+](=O)[O-])cc1 [20h, (S)-2–(2,3-Dioxo-5-((2-(phenoxymethyl)pyrrolidin-1-yl)sulphonyl)indolin-1-yl)-N-(4-nitrophenyl)acetamide]	–
218 to 220 °C	O=C(CN1C(=O)C(=O)c2cc(S(=O)(=O)N3CCC[C@H]3COc3ccccc3)ccc21)Nc1ccc(OC(F)(F)F)cc1 [20i, (S)-2–(2,3-Dioxo-5-((2-(phenoxymethyl)pyrrolidin-1-yl)sulphonyl)indolin-1-yl)-N-(4-(trifluoromethoxy)phenyl)acetamide]	–
209 to 211 °C	Cc1ccc(NC(=O)CN2C(=O)C(=O)c3cc(S(=O)(=O)N4CCC[C@H]4COc4ccccc4)ccc32)cc1 [20j, (S)-2–(2,3-Dioxo-5-((2-(phenoxymethyl)pyrrolidin-1-yl)sulphonyl)indolin-1-yl)-N-(p-tolyl)acetamide]	inhibitory activity against caspase-3 and −7 (in words) (caspase-3 and −7): lowest enzymatic inhibition
204 to 206 °C	COc1ccc(NC(=O)CN2C(=O)C(=O)c3cc(S(=O)(=O)N4CCC[C@H]4COc4ccccc4)ccc32)cc1 [20k, (S)-2–(2,3-Dioxo-5-((2-(phenoxymethyl)pyrrolidin-1-yl)sulphonyl)indolin-1-yl)-N-(4-methoxyphenyl)acetamide]	inhibitory activity against caspase-3 and −7 (in words) (caspase-3 and −7): lowest enzymatic inhibition
